Counter-ions that a name gives are not always drawn.
Legend:
[1] = molecular target: T1, hERG (human ether-a-go-go related gene potassium channel, KCNH2) (Homo sapiens, UniProt Q12809); assay: hERG channel whole-cell patch clamp (Ion Channel Activity Measurement); type: cell-based; conditions: human, room temperature; for inhibition at 1 μM: pH 7.4, 1 μM test article; for inhibition at 10 μM: pH 7.4, 10 μM test article
T1 construct: expressed in transfected cells; host or cells: HEK293
Protocol: HEK293 cell line expressing the human ERG (ether-a-go-go related gene) potassium channel (Potassium voltage-gated channel subfamily H member 2). cDNA strictly similar to GenBank accession number: NM_000238
(§1) Cells expressing channels were cultured in medium supplemented with 20% FBS in HAM'S F12 culture dish. Cells grew in a humidified incubator at 37° C. under 5% carbon dioxide. To passage cells, remove poor medium and rinse the cells once with PBS 1X. […] Place plate on a 37° C. warming incubator 5 min. As soon as cells are detached, add 5 ml of 37° C. complete medium. Draw cell suspension into a sterile pipet and homogenize cells gently to dissociate cells aggregates. Amplify or maintain the cells by seeding 2.5*105 cells in a 6 cm dish (final volume: 5 ml). To maintain electrophysiological performances, cell density must not exceed 80%. On the day before patch clamp experiment, 3*103 cells were seeded on coverslips in the 24-well plate and incubated at 37° C. in 5% carbon dioxide.
(§2) Glass pipette (BF150-86-10, Sutter Instruments) was made by puller (P97, Sutter Instruments). The glass pipette was manipulated using Micro-manipulator (Carm-C-S, MCI Instruments) under the microscope (AE31EF-INV, Motic). After touching the cell, a slight suction was applied to achieve high seal (GΩ). Fast capacitance (in pF) compensation was made after high seal was achieved; after achieving high seal, the membrane was broken, Cell capacitance (in pF) compensation was made from whole-cell capacitance compensation after the whole cell mode was achieved. No leak subtraction was made.
(§3) Cell was incubated with the test article for 5 minutes, or until the current reached a steady-state level. Multiple concentrations of test article were tested. The test articles were applied gradually from low to high concentration. The test and control solutions were flown into a recording chamber mounted on the stage of an inverted microscope via a gravity-fed solution delivery system. During the experiment, solutions were withdrawn from the recording chamber by vacuum aspiration. Each concentration was tested at multiple times. Each cell acted as its own control. All tests were performed at room temperature (23-25° C.).
hERG current was recorded under a holding potential at −80 mV and then depolarized to 30 mV for 2.5 seconds to activate the hERG channel. The peak tail currents were induced by a repolarizing pulse to −50 mV for 4 seconds. This voltage-clamp pulse protocol was performed continuously during the experiment. An interpulse interval of 10 seconds allowed recovery from inactivation. An interpulse of −50 mV test for 0.5 second before 30 mV depolarized step was included for leak current correction

[2] = molecular target: T2, CaV1.2 (L-type voltage-dependent calcium channel; CACNA1C, CACNB2, CACNA2D1) (Homo sapiens, UniProt Q13936); assay: CaV1.2 channel whole-cell patch clamp (Ion Channel Activity Measurement); type: cell-based; conditions: human, room temperature; for inhibition at 5 min, 1 μM: pH 7.4, 1 μM test article; for inhibition at 5 min, 10 μM: pH 7.4, 10 μM test article, read-out: CaV 1.2 10 μM (ion-channel inhibition)
T2 construct: expressed in transfected cells; host or cells: CHO
Protocol: • CHO cell line stably expressing human calcium channel, voltage-dependent, L type, • CACNA1C: cDNA strictly similar to GenBank accession number: NM_000719 • CACNB2: cDNA strictly similar to GenBank accession number: NM_000724 • CACNA2D1: cDNA strictly similar to GenBank accession number: NM_000722 Iks Channel Cell Line:
as §1
Bath solution: 140 mM TEA-C1, 2 mM MgCl2·6H2O, 10 mM CaCl2, 10 mM HEPES, 5 mM D-glucose, pH=7.4 with TEA-OH. Pipette solution: 120 mM CsCl, 1 mM MgCl2·6H2O, 10 mM HEPES, 10 mM EGTA, 0.3 mM Na2-GTP, 4 mM Mg-ATP, pH=7.2 with CsOH.
as §2, §3
Cav1.2 current was recorded under a holding potential at −80 mV and then depolarized to +10 mV for 0.3 seconds. This protocol was repeated at 20 s intervals to observe the effect of test articles on the peak of Cav1.2 current.

[3] = HEK293 cells expressing the human ERG potassium channel

T2 sequence (Q13936 1-2138 isoform Q13936-12): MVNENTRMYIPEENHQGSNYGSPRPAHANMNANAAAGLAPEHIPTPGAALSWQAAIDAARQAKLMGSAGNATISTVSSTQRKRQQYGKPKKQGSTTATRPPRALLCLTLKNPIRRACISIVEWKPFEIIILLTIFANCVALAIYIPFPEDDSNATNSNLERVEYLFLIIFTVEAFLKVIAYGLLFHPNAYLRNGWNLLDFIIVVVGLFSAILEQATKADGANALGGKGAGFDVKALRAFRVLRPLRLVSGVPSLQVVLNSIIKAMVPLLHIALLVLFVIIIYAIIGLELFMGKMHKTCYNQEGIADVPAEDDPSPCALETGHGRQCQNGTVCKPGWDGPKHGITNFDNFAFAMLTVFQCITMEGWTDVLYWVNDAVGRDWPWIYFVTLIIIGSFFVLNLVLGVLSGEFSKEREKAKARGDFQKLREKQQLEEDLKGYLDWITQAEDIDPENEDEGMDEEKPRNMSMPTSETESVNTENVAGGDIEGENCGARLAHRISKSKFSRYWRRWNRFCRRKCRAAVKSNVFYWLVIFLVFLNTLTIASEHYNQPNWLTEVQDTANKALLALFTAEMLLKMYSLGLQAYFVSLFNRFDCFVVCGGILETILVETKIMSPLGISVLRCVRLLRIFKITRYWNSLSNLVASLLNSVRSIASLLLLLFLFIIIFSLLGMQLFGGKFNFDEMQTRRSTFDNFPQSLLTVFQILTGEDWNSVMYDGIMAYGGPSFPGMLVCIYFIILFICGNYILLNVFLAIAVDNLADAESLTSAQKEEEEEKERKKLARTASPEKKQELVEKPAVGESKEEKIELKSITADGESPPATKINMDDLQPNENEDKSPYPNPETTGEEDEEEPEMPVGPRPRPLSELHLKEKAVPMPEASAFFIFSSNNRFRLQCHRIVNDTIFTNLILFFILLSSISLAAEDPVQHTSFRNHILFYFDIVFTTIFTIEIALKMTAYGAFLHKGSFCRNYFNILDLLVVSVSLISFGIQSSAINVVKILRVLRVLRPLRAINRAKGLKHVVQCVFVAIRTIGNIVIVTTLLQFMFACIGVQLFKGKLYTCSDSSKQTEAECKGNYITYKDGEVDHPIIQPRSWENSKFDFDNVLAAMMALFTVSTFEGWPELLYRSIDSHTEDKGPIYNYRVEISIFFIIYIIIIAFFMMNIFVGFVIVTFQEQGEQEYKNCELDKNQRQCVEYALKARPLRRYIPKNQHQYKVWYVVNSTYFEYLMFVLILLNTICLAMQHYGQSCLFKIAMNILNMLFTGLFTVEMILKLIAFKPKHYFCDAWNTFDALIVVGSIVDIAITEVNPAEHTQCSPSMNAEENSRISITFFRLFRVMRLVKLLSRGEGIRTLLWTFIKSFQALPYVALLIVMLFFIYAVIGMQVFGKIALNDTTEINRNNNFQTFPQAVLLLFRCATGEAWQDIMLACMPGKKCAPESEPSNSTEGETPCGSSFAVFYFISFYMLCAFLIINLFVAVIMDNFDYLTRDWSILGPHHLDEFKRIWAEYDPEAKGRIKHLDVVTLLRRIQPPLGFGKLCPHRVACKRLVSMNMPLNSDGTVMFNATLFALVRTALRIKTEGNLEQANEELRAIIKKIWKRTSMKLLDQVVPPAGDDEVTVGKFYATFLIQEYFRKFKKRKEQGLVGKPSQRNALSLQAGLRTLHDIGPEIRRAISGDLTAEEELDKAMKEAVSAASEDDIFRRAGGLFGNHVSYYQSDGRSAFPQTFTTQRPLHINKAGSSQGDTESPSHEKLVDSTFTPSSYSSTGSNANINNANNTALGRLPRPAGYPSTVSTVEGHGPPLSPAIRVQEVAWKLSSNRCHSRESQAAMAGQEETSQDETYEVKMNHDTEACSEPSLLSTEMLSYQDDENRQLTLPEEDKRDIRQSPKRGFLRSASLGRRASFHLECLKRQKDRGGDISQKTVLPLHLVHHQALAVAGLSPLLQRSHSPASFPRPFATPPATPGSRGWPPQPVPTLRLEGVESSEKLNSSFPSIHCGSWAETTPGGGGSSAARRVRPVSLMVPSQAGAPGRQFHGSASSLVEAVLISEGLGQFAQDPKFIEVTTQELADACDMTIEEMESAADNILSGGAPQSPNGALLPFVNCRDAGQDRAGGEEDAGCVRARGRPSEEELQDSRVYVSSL
T2 sequence (Q08289 1-605 isoform Q08289-2 partner): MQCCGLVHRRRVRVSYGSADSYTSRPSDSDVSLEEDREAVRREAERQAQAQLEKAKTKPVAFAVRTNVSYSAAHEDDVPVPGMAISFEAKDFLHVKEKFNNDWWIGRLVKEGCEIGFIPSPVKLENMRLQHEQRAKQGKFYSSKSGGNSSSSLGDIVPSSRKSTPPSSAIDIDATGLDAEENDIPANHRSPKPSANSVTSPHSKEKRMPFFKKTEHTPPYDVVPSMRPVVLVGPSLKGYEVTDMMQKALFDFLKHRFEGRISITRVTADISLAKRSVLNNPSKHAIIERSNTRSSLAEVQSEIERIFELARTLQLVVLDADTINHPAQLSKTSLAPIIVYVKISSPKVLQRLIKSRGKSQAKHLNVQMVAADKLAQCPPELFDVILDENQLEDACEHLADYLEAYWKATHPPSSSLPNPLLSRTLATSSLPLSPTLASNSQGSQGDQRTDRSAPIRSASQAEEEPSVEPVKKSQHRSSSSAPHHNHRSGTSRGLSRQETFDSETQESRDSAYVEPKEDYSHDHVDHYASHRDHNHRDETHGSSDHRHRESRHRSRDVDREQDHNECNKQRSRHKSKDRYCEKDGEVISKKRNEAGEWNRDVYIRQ
T2 sequence (P54289 25-1091 isoform P54289-2 partner limits assumed): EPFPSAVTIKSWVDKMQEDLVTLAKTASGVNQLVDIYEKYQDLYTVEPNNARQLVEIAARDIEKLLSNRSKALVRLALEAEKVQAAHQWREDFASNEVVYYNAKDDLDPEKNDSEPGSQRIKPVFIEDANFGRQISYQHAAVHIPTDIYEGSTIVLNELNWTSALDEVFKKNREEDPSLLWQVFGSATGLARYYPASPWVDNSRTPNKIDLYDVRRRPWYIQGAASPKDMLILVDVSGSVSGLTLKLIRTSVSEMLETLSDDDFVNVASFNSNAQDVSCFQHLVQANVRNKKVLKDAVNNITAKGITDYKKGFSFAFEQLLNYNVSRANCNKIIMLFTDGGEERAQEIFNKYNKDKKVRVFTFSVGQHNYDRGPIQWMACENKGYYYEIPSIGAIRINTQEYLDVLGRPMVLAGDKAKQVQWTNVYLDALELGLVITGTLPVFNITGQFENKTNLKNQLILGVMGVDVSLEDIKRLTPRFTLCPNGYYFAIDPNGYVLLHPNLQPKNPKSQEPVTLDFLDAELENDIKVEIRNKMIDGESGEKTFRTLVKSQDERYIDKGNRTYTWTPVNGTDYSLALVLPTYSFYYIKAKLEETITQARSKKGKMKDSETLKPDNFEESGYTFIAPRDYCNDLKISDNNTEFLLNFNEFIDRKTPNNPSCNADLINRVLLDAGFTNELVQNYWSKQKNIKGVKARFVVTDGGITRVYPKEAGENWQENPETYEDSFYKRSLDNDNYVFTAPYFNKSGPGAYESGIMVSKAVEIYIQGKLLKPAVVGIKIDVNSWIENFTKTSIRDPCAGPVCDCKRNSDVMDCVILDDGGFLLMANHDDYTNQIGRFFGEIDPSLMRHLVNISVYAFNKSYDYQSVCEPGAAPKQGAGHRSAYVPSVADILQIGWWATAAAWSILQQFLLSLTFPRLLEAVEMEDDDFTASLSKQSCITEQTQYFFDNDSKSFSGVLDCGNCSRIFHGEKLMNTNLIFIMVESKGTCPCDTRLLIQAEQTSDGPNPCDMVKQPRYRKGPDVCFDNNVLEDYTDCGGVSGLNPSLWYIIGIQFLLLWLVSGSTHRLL
T2 sequence (P54289 957-1103 partner limits assumed): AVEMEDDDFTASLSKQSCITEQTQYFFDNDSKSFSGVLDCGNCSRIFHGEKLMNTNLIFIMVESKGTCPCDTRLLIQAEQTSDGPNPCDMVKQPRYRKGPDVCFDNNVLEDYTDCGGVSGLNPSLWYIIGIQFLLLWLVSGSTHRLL
T1 sequence (Q12809 whole entry): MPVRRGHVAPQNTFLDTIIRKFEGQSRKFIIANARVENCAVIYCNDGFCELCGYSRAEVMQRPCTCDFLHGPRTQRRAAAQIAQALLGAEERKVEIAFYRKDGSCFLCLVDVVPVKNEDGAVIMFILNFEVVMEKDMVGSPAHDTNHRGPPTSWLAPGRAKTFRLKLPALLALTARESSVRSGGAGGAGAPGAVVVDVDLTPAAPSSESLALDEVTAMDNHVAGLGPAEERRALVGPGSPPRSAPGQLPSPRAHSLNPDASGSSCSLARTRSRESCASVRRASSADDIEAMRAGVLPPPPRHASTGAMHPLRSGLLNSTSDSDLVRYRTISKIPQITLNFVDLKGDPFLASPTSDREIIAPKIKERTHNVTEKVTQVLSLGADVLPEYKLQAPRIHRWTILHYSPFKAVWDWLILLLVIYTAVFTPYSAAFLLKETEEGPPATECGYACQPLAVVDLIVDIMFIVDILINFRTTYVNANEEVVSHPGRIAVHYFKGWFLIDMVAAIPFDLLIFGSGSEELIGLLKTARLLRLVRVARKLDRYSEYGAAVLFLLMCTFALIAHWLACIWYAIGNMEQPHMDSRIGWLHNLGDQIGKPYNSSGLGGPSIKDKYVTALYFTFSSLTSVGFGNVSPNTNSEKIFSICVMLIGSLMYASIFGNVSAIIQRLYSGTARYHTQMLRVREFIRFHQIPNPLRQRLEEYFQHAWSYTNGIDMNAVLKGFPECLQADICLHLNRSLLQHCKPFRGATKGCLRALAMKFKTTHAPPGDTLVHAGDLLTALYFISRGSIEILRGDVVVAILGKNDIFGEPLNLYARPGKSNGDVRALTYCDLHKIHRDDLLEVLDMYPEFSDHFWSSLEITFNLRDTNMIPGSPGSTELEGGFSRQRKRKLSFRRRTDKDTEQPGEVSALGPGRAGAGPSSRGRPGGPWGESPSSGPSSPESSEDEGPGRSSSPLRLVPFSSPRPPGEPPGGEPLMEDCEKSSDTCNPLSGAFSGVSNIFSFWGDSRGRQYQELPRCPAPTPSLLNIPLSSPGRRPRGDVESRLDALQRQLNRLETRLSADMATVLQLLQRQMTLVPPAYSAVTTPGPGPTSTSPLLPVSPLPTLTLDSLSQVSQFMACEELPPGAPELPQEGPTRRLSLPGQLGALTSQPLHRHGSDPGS

SMILES	inhibition at 1 μM [1, 3] [%]	inhibition at 10 μM [1, 3] [%]	inhibition at 5 min, 1 μM [2] [%]	inhibition at 5 min, 10 μM [2] [%]	inhibition at 1 μM [1] [%]	inhibition at 10 μM [1] [%]
O=C(O)c1ccc2c(Cc3c(O)ccc4ccccc34)c(O)ccc2c1 [Compound A114, 6-hydroxy-5-((2-hydroxynaphthalen-1-yl)methyl)-2-naphthoic acid]	< 25	50 to 75	< 25	< 25	–	–
Oc1cccc(-c2cccnc2)c1Cc1c(O)cccc1-c1cccnc1 [Compound A117, 2,2′-methylenebis(3-(pyridin-3-yl)phenol)]	< 25	< 25	< 25	25 to 50	–	–
COc1cccc(-c2cccnc2)c1Cc1c(O)cccc1-c1cccnc1 [Compound A117-I-1, 2-(2-methoxy-6-(pyridin-3-yl)benzyl)-3-(pyridin-3-yl)phenol]	< 25	25 to 50	< 25	< 25	–	–
COc1cccc(-c2ccncc2)c1Cc1c(O)cccc1-c1ccncc1 [Compound A118-I-1, 2-(2-methoxy-6-(pyridin-4-yl)benzyl)-3-(pyridin-4-yl)phenol]	< 25	25 to 50	< 25	< 25	–	–
NC(=O)c1ccc2c(Cc3c(O)ccc4ccccc34)c(O)ccc2c1 [Compound A122, 6-hydroxy-5-((2-hydroxynaphthalen-1-yl)methyl)-2-naphthamide]	25 to 50	75 to 100	< 25	75 to 100	–	–
NC(=O)c1ccc2c(Cc3c(O)ccc4cc(C(N)=O)ccc34)c(O)ccc2c1 [Compound A123, 5,5′-methylenebis(6-hydroxy-2-naphthamide)]	< 25	25 to 50	< 25	< 25	–	–
CCN(CC)CCOc1ccc2cc(C(=O)O)ccc2c1Cc1c(O)ccc2cc(C(=O)O)ccc12 [Compound A125, 5-((6-carboxy-2-(2-(diethylamino)ethoxy)naphthalen-1-yl)methyl)-6-hydroxy-2-naphthoic acid]	< 25	–	< 25	75 to 100	–	–
COc1ccc2ccccc2c1Cc1c(OCC[N+]2(C)CCCC2)ccc2ccccc12 [Compound A129-2, 1-(2-((1-((2-methoxynaphthalen-1-yl)methyl)naphthalen-2-yl)oxy)ethyl)-1-methylpyrrolidin-1-ium formate]	25 to 50	–	25 to 50	75 to 100	–	–
Oc1ccc2ccccc2c1Cc1c(OCCN2CCOCC2)ccc2ccccc12 [Compound A130, 1-((2-(2-morpholinoethoxy)naphthalen-1-yl)methyl)naphthalen-2-ol]	< 25	75 to 100	25 to 50	75 to 100	–	–
Oc1ccc2ccccc2c1Cc1c(OCCN2CCCCC2)ccc2ccccc12 [Compound A138, 1-((2-(2-(piperidin-1-yl)ethoxy)naphthalen-1-yl)methyl)naphthalen-2-ol]	75 to 100	–	< 25	75 to 100	–	–
COc1ccc2ccccc2c1Cc1c(OCCO)ccc2ccccc12 [Compound A139-2, 2-((1-((2-methoxynaphthalen-1-yl)methyl)naphthalen-2-yl)oxy)ethan-1-ol]	75 to 100	75 to 100	< 25	75 to 100	–	–
Oc1ccc2c(c1Cc1c(O)ccc3ccccc13)CNCC2 [Compound A141, 8-((2-hydroxynaphthalen-1-yl)methyl)-1,2,3,4-tetrahydroisoquinolin-7-ol]	< 25	25 to 50	< 25	< 25	–	–
Oc1ccc2c(c1Cc1c(O)ccc3c1CNCC3)CCCC2 [Compound A141-I-1, 8-((2-hydroxy-5,6,7,8-tetrahydronaphthalen-1-yl)methyl)-1,2,3,4-tetrahydroisoquinolin-7-ol]	< 25	< 25	< 25	< 25	–	–
CCN(CC)CCOc1ccc2nccnc2c1Cc1c(O)ccc2ccccc12 [Compound A168, 1-((6-(2-(diethylamino)ethoxy)quinoxalin-5-yl)methyl)naphthalen-2-ol]	< 25	< 25	< 25	< 25	–	–
COc1cccc(C2CCNCC2)c1Cc1c(OC)cccc1C1CCNCC1 [Compound A194]	–	–	25 to 50	50 to 75	< 25	25 to 50
COc1ccc2ccccc2c1Cc1c(OCCN(CCO)CCO)ccc2ccccc12 [Compound A195, 2,2′-((2-((1-((2-methoxynaphthalen-1-yl)methyl)naphthalen-2-yl)oxy)ethyl)azanediyl)bis(ethan-1-ol)]	75 to 100	75 to 100	< 25	75 to 100	–	–
COc1ccc2ccccc2c1Nc1c([N+](=O)[O-])ccc2ccccc12 [Compound A196, 2-methoxy-N-(2-nitronaphthalen-1-yl)naphthalen-1-amine]	< 25	< 25	< 25	< 25	–	–
CCN(CC)CC(=O)Oc1ccc2ccccc2c1Cc1c(OC)ccc2ccccc12 [Compound A232, 1-((2-methoxynaphthalen-1-yl)methyl)naphthalen-2-yl diethylglycinate]	–	–	< 25	75 to 100	50 to 75	75 to 100
O=C(c1c(O)ccc2ccccc12)c1c(OCCN2CCCC2)ccc2ccccc12 [Compound A234, (2-hydroxynaphthalen-1-yl)(2-(2-(pyrrolidin-1-yl)ethoxy)naphthalen-1-yl)methanone]	75 to 100	75 to 100	< 25	75 to 100	–	–
CCN(CC)CCNC(=O)c1ccc2ccccc2c1Cc1c(OC)ccc2ccccc12 [Compound A238, N-(2-(diethylamino)ethyl)-1-((2-methoxynaphthalen-1-yl)methyl)-2-naphthamide]	75 to 100	75 to 100	25 to 50	75 to 100	–	–
CCOCOc1ccc2ccccc2c1Cc1c(OCCN)ccc2ccccc12 [Compound A244, 2-((1-((2-(ethoxymethoxy)naphthalen-1-yl)methyl)naphthalen-2-yl)oxy)ethan-1-amine]	75 to 100	75 to 100	< 25	25 to 50	–	–
CCCCCCOc1ccc2ccccc2c1Cc1c(OCCN)ccc2ccccc12 [Compound A247, 2-((1-((2-(hexyloxy)naphthalen-1-yl)methyl)naphthalen-2-yl)oxy)ethan-1-amine]	< 25	–	< 25	–	–	–
CCOCOc1ccc2ccccc2c1Cc1c(OCCN2CCCC2)ccc2ccccc12 [Compound A254, 1-(2-((1-((2-(ethoxymethoxy)naphthalen-1-yl)methyl)naphthalen-2-yl)oxy)ethyl)pyrrolidine]	< 25	75 to 100	< 25	50 to 75	–	–
